One assay deals with full-length WT STING (Homo sapiens (Human), UniProt Q86WV6, H232R). The experiment in a line: 3H-cGAMP filtration binding assay (WT STING). The following applies: for EC50: competition with tritiated cGAMP, WT STING membrane; for inhibition at 20 µM: WT STING, compound at 20 uM. The source says: The ability of compounds to bind STING is quantified by their ability to compete with tritiated cGAMP ligand for human STING receptor membrane using a radioactive filter-binding assay. The binding assay employs STING receptor obtained from Trichoplusia ni cell membranes (T. ni; Expression Systems, cat #94-002F, www.expressionsystems.com) overexpressing full-length WT STING and tritiated cGAMP ligand.
full-length WT STING, sequence (Q86WV6 other isoform, or with tags, fused parts or gaps H232R (already in the parent)): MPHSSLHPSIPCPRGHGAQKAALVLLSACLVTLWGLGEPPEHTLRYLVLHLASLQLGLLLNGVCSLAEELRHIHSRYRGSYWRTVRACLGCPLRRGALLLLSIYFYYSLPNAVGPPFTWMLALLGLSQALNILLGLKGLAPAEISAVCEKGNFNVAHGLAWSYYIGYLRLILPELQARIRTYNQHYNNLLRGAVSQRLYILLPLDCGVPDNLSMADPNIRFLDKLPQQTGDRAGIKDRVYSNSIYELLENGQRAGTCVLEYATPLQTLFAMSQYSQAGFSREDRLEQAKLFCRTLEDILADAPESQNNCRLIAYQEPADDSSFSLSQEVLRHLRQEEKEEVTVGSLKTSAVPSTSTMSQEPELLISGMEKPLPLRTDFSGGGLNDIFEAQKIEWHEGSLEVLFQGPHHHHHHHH
The basic WT STING filtration assay protocol is as follows:
The filter plates were then dried at 55° C. for 30 min using a pressurized VWR oven before 30 uL of ULTIMA GOLD F scintillate was added to each well. Tritium levels for each reaction well were then measured using a PerkinElmer TopCount plate reader.
(§1) After normalization to controls, the percent activity for each compound concentration was calculated by measuring the amount of remaining radioactivity. The plot of percent activity versus the log of compound concentration was fit with a 4-parameter dose response equation to calculate EC50 values.

Another assay addresses full-length HAQ STING (Homo sapiens (Human), UniProt Q86WV6, G230A/H232R/R293Q/R71H). The experiment in a line: 3H-cGAMP filtration binding assay (HAQ STING). The following applies: competition with tritiated cGAMP, HAQ STING membrane.
Excerpt: The ability of compounds to bind STING is quantified by the ability to compete with tritiated cGAMP ligand for human STING receptor membrane using a radioactive filter-binding assay. The binding assay employs STING receptor obtained from Hi-Five cell membranes overexpressing full-length HAQ STING prepared in-house and tritiated cGAMP ligand also purified in-house.
The ability of compounds to bind STING is quantified by their ability to compete with tritiated cGAMP ligand for human STING receptor membrane using a radioactive filter-binding assay. The binding assay employs STING receptor obtained from Trichoplusia ni cell membranes (T. ni; Expression Systems, cat #94-002F, www.exressionsystems.com) overexpressing full-length HAQ STING and tritiated cGAMP ligand.
The basic HAQ STING filtration assay protocol is as follows:
Compound and membrane then preincubated for 60 min at RT to allow compound binding to equilibrate. Following equilibration, 8 nM of [^3H]c-GAMP ligand was prepared by diluting into assay buffer, and 50 uL of this working stock was then manually added to each well of the assay plate. […] The filter plates were then dried at 55° C. for 30 min using a pressurized oven before 30 uL of ULTIMA GOLD F scintillate was added to each well. Tritium levels for each reaction well were then measured using a PerkinElmer TopCount plate reader.
as §1

The test system of the next assay is THP1 cells. As to the kind of experiment: IFN-β secretion in THP1 cell culture (5 h). Format: cell-based, human. As to conditions: relative to 30 uM cGAMP. As to the method:
The ability of compounds to stimulate the secretion of interferon-beta from THP1 cells was measured using a human IFN-3 AlphaLISA kit (Perkin Elmer, Cat. No. AL265F). The basic protocol is as follows:
The cell viability and count was ascertained using a Beckman Coulter V-Cell XR cell counter. The cells suspension was centrifuged at 200×g for 5 min at RT. Cells were resuspended to a density of 0.8×10^6/mL in 37° C. assay medium. Subsequent liquid transfers were performed using either a Matrix electronic multichannel pipette or an Agilent Bravo Automated Liquid Handling Platform.
The assay was started by dispensing 40 μL of the previously prepared cell suspension into the wells of the plate containing compounds. After 5 h incubation at 37° C., 5% CO2 in a humidified atmosphere, the plate of cells and compounds was centrifuged at 200×g for 5 min at RT. […] To these supernatant-containing wells was added 10 μL of 5× Anti-Analyte Acceptor beads ([…] of AlphaLISA HiBlock Buffer) and incubated for 30 min at RT while shaking on an orbital plate shaker. To each well was added 10 μL of 5× Biotinylated Antibody Anti-analyte (5 nM in AlphaLISA HiBlock Buffer) and incubated on an orbital plate shaker for 60 min at RT or overnight at 4° C. To each well was added 25 μL of 2× SA-Donor beads ([…] in AlphaLISA HiBlock Buffer) and incubated for 30-45 min at RT in the dark while shaking on an orbital plate shaker. The plate was then read on a Perkin Elmer Envision (λex=680 nm, […]). The percent effect of the AlphaLISA signal at each compound concentration was calculated based on 30 uM cGAMP positive controls and 0.3% DMSO negative controls. The plot of percent effect versus the log of compound concentration was fit with a 4-parameter concentration response equation to calculate EC50 values.
Compounds of the disclosure were evaluated for IFN-3 secretion in THP1 cell culture as described above.

Molecules are shown by their SMILES.

full-length HAQ STING, sequence (Q86WV6 other isoform, or with tags, fused parts or gaps, stated change not applied): as the sequence (Q86WV6 other isoform, or with tags, fused parts or gaps H232R (already in the parent)) above, with R71H, G230A, R293Q counted along it

With `COc1cc2sc(C(=O)C[C@H](C)C(=O)O)cc2c(F)c1OC` [Example 13, (S)-4-(4-fluoro-5,6-dimethoxybenzo[b]thiophen-2-yl)-2-methyl-4-oxobutanoic acid], the figures for the concentration for a half-maximal effect (EC50) on full-length WT STING and at full-length HAQ STING were 2.08 µM and 1.38 µM, respectively. Further, in the assay with THP1 cells, the “% Effect at 30 μM relative to 2’3’-cGAMP” value amounted to 228%.
At full-length WT STING, `COc1cc2sc(C(=O)CCC(=O)O)cc2cc1Br` [Example 19, 4-(5-Bromo-6-methoxybenzo[b]thiophene-2-yl)-4-oxobutanoic acid] came in with an inhibition at 20 µM of 30%. The midpoint of the response on full-length HAQ STING, the EC50, lay at 9.7 µM. Also, the “% Effect at 30 μM relative to 2’3’-cGAMP” value in the assay with THP1 cells is 153%.
In the case of `COc1cc2sc(C(=O)C[C@H](C)C(=O)O)cc2cc1F` [Example 30, (S)-4-(5-fluoro-6-methoxybenzo[b]thiophen-2-yl)-2-methyl-4-oxobutanoic acid], the values for the 50% effective concentration (EC50) at full-length WT STING and on full-length HAQ STING were 18.7 µM and 5.05 µM, respectively. The “% Effect at 30 μM relative to 2’3’-cGAMP” value in the assay on THP1 cells is reported as 15%.
Take `CCCc1cc2sc(C(=O)C[C@H](C)C(=O)O)cc2cc1OC` [Example 44, (2S)-4-(5-methoxy-6-propyl-1-benzothiophen-2-yl)-2-methyl-4-oxobutanoic acid]: on full-length HAQ STING, a half-maximal effect (EC50) was put at 15.7 µM. Also, in the assay on THP1 cells, the “% Effect at 30 μM relative to 2’3’-cGAMP” value is listed as 20%.
`CNc1cc2cc(C(=O)CCC(=O)O)sc2cc1OC` [Example 10, 4-(6-Methoxy-5-(methylamino)benzo[b]thiophen-2-yl)-4-oxobutanoic acid]: 20 µM produced 31% inhibition at full-length WT STING. The compound also gave a concentration for a half-maximal effect (EC50) on full-length HAQ STING of 14 µM. For the same compound, in the assay on THP1 cells, the “% Effect at 30 μM relative to 2’3’-cGAMP” value worked out at 182%.
On the same counts, the results for `COc1cc2cc(C(=O)C[C@H](C)C(=O)O)sc2cc1CCF` [Example 46, (2S)-4-[6-(2-fluoroethyl)-5-methoxy-1-benzothiophen-2-yl]-2-methyl-4-oxobutanoic acid] are 24%, 7.45 µM and 205%.
On to `COc1cc2cc(C(=O)C[C@H](C)C(=O)O)sc2cc1SC` [Example 38, (S)-4-(5-methoxy-6-(methylthio)benzo[b]thiophen-2-yl)-2-methyl-4-oxobutanoic acid], for which a half-maximal response at full-length HAQ STING (EC50) required 1.93 µM. Moreover, in the assay with THP1 cells, the “% Effect at 30 μM relative to 2’3’-cGAMP” value is 154%.
On full-length WT STING, `C[C@@H](CC(=O)c1cc2cc(Cl)c(Cl)cc2s1)C(=O)O` [Example 20] came in with an inhibition at 20 µM of 33%. The same compound yielded an EC50 at full-length HAQ STING of 10.7 µM. In the assay on THP1 cells, the “% Effect at 30 μM relative to 2’3’-cGAMP” value stood at 47%.
`COc1cc2cc(C(=O)C[C@H](C)C(=O)O[C@H]3CSSC[C@@H]3O)sc2cc1OC` [Example 42, (S)-(4R,5R)-5-hydroxy-1,2-dithian-4-yl 4-(5,6-dimethoxybenzo[b]thiophen-2-yl)-2-methyl-4-oxobutanoate] returned an EC50 on full-length HAQ STING of 0.759 µM. The “% Effect at 30 μM relative to 2’3’-cGAMP” value in the assay with THP1 cells stood at 6%.
In the same order, the values of `COc1cc2cc(C(=O)CCC(=O)O)sc2cc1CCF` [Example 45, 4-[6-(2-fluoroethyl)-5-methoxy-1-benzothiophen-2-yl]-4-oxobutanoic acid] are 14.7 µM and 104%.
In turn, `COc1cc2cc(C(=O)CCC(=O)O)sc2cc1Cl` [Example 23, 4-(6-Chloro-5-methoxybenzo[b]thiophen-2-yl)-4-oxobutanoic acid] displayed an inhibition at 20 µM on full-length WT STING of 37%. The midpoint of the response on full-length HAQ STING, the EC50, lay at 6.05 µM. In addition, in the assay on THP1 cells, the “% Effect at 30 μM relative to 2’3’-cGAMP” value was 191%.
With `COc1cc2cc(C(=O)CCC(=O)O)sc2cc1OC` [Example 16, 4-(5,6-dimethoxybenzo[b]thiophen-2-yl)-4-oxobutanoic acid], the results for the EC50 at full-length WT STING and on full-length HAQ STING were 2.48 µM and 1.72 µM, respectively. Also, in the assay with THP1 cells, the “% Effect at 30 μM relative to 2’3’-cGAMP” value came to 129%.
In the same order, the values of `CCC(CC(=O)c1cc2cc(OC)c(OC)cc2s1)C(=O)O` (centres unmarked) [Example 1, 4-(5,6-dimethoxybenzo[b]thiophen-2-yl)-2-ethyl-4-oxobutanoic acid] are 5.17 µM, 3.41 µM and 144%.
Compound `C=Cc1cc2cc(C(=O)[C@@H]3C[C@@H]3C(=O)O)sc2cc1OC` [Example 39, (1S,2R)-2-(6-methoxy-5-vinylbenzo[b]thiophene-2-carbonyl)cyclopropane-1-carboxylic acid] registered a concentration for a half-maximal effect (EC50) at full-length HAQ STING of 1.15 µM. The “% Effect at 30 μM relative to 2’3’-cGAMP” value in the assay on THP1 cells came out at 193%.
In the same order, the values of `CNc1cc2sc(C(=O)C[C@H](C)C(=O)O)cc2cc1OC` [Example 37, (S)-4-(5-methoxy-6-(methylamino)benzo[b]thiophen-2-yl)-2-methyl-4-oxobutanoic acid] are 5.61 µM and 42%.
Regarding `COc1cc2sc(C(=O)[C@H]3C[C@H]3C(=O)O)cc2cc1Br` (single isomer, unassigned) [Example 6, 2-(5-bromo-6-methoxybenzo[b]thiophene-2-carbonyl)cyclopropane-1-carboxylic acid], at full-length HAQ STING, it took 0.703 µM to reach a half-maximal effect (EC50). In addition, in the assay with THP1 cells, the “% Effect at 30 μM relative to 2’3’-cGAMP” value turned out to be 130%.
For the compound `COc1cc2sc(C(=O)CCC(=O)O)cc2c(F)c1OC` [Example 14, 4-(4-fluoro-5,6-dimethoxybenzo[b]thiophen-2-yl)-4-oxobutanoic acid], the “% Effect at 30 μM relative to 2’3’-cGAMP” value in the assay on THP1 cells was determined as 394%.
Regarding `COc1cc2cc(C(=O)CCC(=O)OC(C)(C)C)sc2cc1OC` [Example 12, tert-butyl 4-(5,6-dimethoxybenzo[b]thiophen-2-yl)-4-oxobutanoate], in the assay with THP1 cells, the “% Effect at 30 μM relative to 2’3’-cGAMP” value was determined as 16%.
`COc1cc2sc(C(=O)[C@@H]3C[C@@H]3C(=O)O)cc2cc1Br` (single isomer, unassigned) [Example 5, 2-(5-bromo-6-methoxybenzo[b]thiophene-2-carbonyl)cyclopropane-1-carboxylic acid] came in with an EC50 at full-length HAQ STING of 1.14 µM. The “% Effect at 30 μM relative to 2’3’-cGAMP” value in the assay with THP1 cells was determined as 77%.
In the same order, the values of `COc1cc2sc(C(=O)C3CC3C(=O)O)cc2cc1SC` (centres unmarked) [Example 40, 2-(6-methoxy-5-(methylthio)benzo[b]thiophene-2-carbonyl)cyclopropane-1-carboxylic acid] are 3.94 µM and 93%.
On the same counts, the results for `CCCC(CC(=O)c1cc2cc(OC)c(OC)cc2s1)C(=O)O` (centres unmarked) [Example 49, 2-(2-(5,6-dimethoxybenzo[b]thiophen-2-yl)-2-oxoethyl)pentanoic acid] are 2.72 µM and 111%.
In the same order, the values of `CCCc1cc2cc(C(=O)C[C@H](C)C(=O)O)sc2cc1OC` [Example 47, (2S)-4-(6-methoxy-5-propyl-1-benzothiophen-2-yl)-2-methyl-4-oxobutanoic acid] are 5.06 µM and 90%.
In turn, `COc1cc2sc(C(=O)C[C@H](C)C(=O)O)cc2c2nc(C)oc12` [Example 54, (S)-4-(4-methoxy-2-methylthieno[2′,3′:5,6]benzo[1,2-d]oxazol-7-yl)-2-methyl-4-oxobutanoic acid] gave an EC50 on full-length HAQ STING of 0.531 µM. Besides, the “% Effect at 30 μM relative to 2’3’-cGAMP” value in the assay on THP1 cells stood at 66%.

The values are drawn from patent US10730849B2, “Benzo[b]thiophene compounds as STING agonists” (MERCK SHARP & DOHME CORP., priority 2016, dated 2020).
